Laboratory results from patent US7091229B2, “Tricyclic lactam and sultam derivatives and their use as histone deacetylase inhibitors” (Hoffman-La Roche Inc., priority 2001, dated 2006).

Tested on: HDAC
Assay: HDAC inhibition assay using an aminocoumarin derivative of an omega-acetylated lysine as substrate
Format: biochemical
Settings: compound concentration 10 nM
Procedure: To determine the HDAC inhibitory properties of the compounds of the invention an assay was performed using an aminocoumarin derivative of an omega-acetylated lysine as substrate for the enzyme. This assay has been described in detail in the literature (Nucleic Acid Research 1999, 27, 2057–2058. Using the protocol described therein, the inhibitory effect of representative compounds was determined at a concentration of 10 nM. The observed inhibition rates for selected compounds are shown in Table 1: […]

`O=C(CCCCCCCN1c2cccc3cccc(c23)S1(=O)=O)NO` [Example 1, 8-(1,1-dioxo-2H-naphtho[1,8-cd]isothiazol-2-yl)-octanoic acid hydroxyamide] was tested, and the “Inhibitory effect at 10 nM in %” value was 64%.

`O=C(CCCCCCN1c2cccc3cccc(c23)S1(=O)=O)NO` [Example 2, 7-(1,1-dioxo-2H-naphtho[1,8-cd]isothiazol-2-yl)-heptanoic acid hydroxyamide] was tested, and the “Inhibitory effect at 10 nM in %” value was 90%.

For `O=C(CCCCCCCN1C(=O)c2cccc3cccc1c23)NO` [Example 3, 8-(2-oxo-2H-benzo[cd]indol-1-yl)-octanoic acid hydroxyamide], the “Inhibitory effect at 10 nM in %” value was 82%.
